53 compounds from the supplement of paper PMC11997997 can be followed below.

Experiment [1] relates to murine bone marrow-derived macrophages. Nature of the experiment: area under cytotoxicity dose-response curve (AUC (% cytotoxicity x dose, relative)); higher = more cytotoxic. Particulars: duration: 6 days; dose range: 0.13-80 uM, 8 points. The essentials:
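Using opaque 384-well plates, primary murine bone marrow-derived macrophages were treated for 6 days at 37 °C in 5% CO2 with an 8-point, 2.5-fold dilution series spanning final concentrations of 80–0.13 μM. After CellTiter-Glo (Promega) luminescence readout of viability, percent cytotoxicity was normalised to vehicle and positive control wells. The reported value is the area under the dose–response curve for cytotoxicity, derived in GraphPad Prism version 10.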

For experiment [2], the system named is Mycobacterium tuberculosis CDC1551 (intracellular, in murine BMDM). Nature of the experiment: area under intracellular growth-inhibition dose-response curve (AUC (% inhibition x dose, relative)); higher = more potent. Particulars: duration: 6 days; dose range: 0.13-80 uM, 8 points. In short, it runs like this:
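Primary murine bone marrow-derived macrophages in 384-well opaque plates were infected 24 h after seeding with luciferase-expressing M. tuberculosis CDC1551 at multiplicity of infection 1 for 1 h. They were then treated with an 8-dose, 2.5-fold series (final 80–0.13 μM) for 6 days. Growth was read by Bright-Glo luciferin assay and normalised to a reference drug control and the lowest-concentration wells. The value is the area under the growth-inhibition dose–response curve, calculated in GraphPad Prism.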

As to `O=C(Cn1c(=O)cnc2ccccc21)Nc1cccc(S(=O)(=O)N2CCOCC2)c1`, the “area under cytotoxicity dose-response curve” value in experiment [1] came out at 30.4. The “area under intracellular growth-inhibition dose-response curve” value in experiment [2] was determined as 23.9.
With `CC(NC(=O)c1cccs1)c1ccc(Cl)cc1` (stereo unspecified), the “area under cytotoxicity dose-response curve” value in experiment [1] stood at 2.59. In experiment [2], the “area under intracellular growth-inhibition dose-response curve” value amounted to 251.
`CSCCC(NC(=O)c1ccccc1Br)C(=O)NNC(=O)c1ccncc1` (stereo unspecified): the “area under cytotoxicity dose-response curve” value in experiment [1] turned out to be 12.7. Also, the “area under intracellular growth-inhibition dose-response curve” value in experiment [2] amounted to 244.
With `CC(=O)c1c(C)[n+]([O-])c2cc(F)c(F)cc2[n+]1[O-]`, the “area under cytotoxicity dose-response curve” value in experiment [1] came out at 13.7. Moreover, the “area under intracellular growth-inhibition dose-response curve” value in experiment [2] was 45.9.
On to `O=C(NC12CC3CC(CC(C3)C1)C2)c1ccc(Br)o1`, for which the “area under cytotoxicity dose-response curve” value in experiment [1] was less than 0. The “area under intracellular growth-inhibition dose-response curve” value in experiment [2] turned out to be 171.
As to `CC(=NNC(=O)c1ccncc1)c1cccc(Br)c1`, the “area under cytotoxicity dose-response curve” value in experiment [1] is less than 0. The “area under intracellular growth-inhibition dose-response curve” value in experiment [2] is 234.
Regarding `CC(C)Cn1c([N+](=O)[O-])nc2c1c(=O)[nH]c(=O)n2C`, in experiment [1], the “area under cytotoxicity dose-response curve” value was found to be 40.1. For the same compound, the “area under intracellular growth-inhibition dose-response curve” value in experiment [2] stood at 5.16.
The like results for `CC[C@H]1OC(=O)[C@H](C)[C@@H](O[C@H]2C[C@@](C)(OC)[C@@H](O)[C@H](C)O2)[C@H](C)[C@@H](O[C@@H]2O[C@H](C)C[C@H](N(C)C)[C@H]2O)[C@](C)(O)C[C@@H](C)C(=NOCOCCOC)[C@H](C)[C@@H](O)[C@]1(C)O` were, in that order, 7.74 and 204.
With `O=C(CCC1CCCCC1)NCc1cccs1`, in experiment [1], the “area under cytotoxicity dose-response curve” value was 42.9. Also, the “area under intracellular growth-inhibition dose-response curve” value in experiment [2] was 187.
On to `CCN1C(=O)/C(=C\NC2CCCC(C)C2C)SC1=S` (stereo unspecified), for which the “area under cytotoxicity dose-response curve” value in experiment [1] was 97.6. For the same compound, the “area under intracellular growth-inhibition dose-response curve” value in experiment [2] is 226.
In the case of `Cc1c(C)c2cccnc2c2ncccc12`, the “area under cytotoxicity dose-response curve” value in experiment [1] turned out to be 36.7. The “area under intracellular growth-inhibition dose-response curve” value in experiment [2] was determined as 162.
With `O=C(c1cccs1)N1CCC(c2ccccc2)C1` (stereo unspecified), in experiment [1], the “area under cytotoxicity dose-response curve” value was less than 0. The “area under intracellular growth-inhibition dose-response curve” value in experiment [2] is 189.
The like results for `CCC(=O)NC(=S)Nc1ccc(NC(=O)COc2ccccc2)cc1` were, in that order, 69.1 and 201.
As to `CCOC(=O)c1ccc(NC(=O)c2cc3c(s2)CCC3)cc1`, the “area under cytotoxicity dose-response curve” value in experiment [1] stood at 11.2. Further, the “area under intracellular growth-inhibition dose-response curve” value in experiment [2] is 234.
As for `Cn1ncc2cc(NC(N)=S)ccc21`, the “area under cytotoxicity dose-response curve” value in experiment [1] is less than 0. The “area under intracellular growth-inhibition dose-response curve” value in experiment [2] came to 196.
On to `NC(=S)c1cn(C2OC(CO)C(O)C2O)c2ncnc(N)c12` (stereo unspecified), for which, in experiment [1], the “area under cytotoxicity dose-response curve” value was found to be 36.6. The “area under intracellular growth-inhibition dose-response curve” value in experiment [2] was 70.2.
The like results for `CC1CCN(Cc2nc(-c3ccccc3)no2)CC1.Cl` were, in that order, 111 and 175.
For `Cc1ccc(/C=N/NC(=O)C2COc3ccccc3O2)s1` (stereo unspecified), the “area under cytotoxicity dose-response curve” value in experiment [1] was less than 0. In addition, the “area under intracellular growth-inhibition dose-response curve” value in experiment [2] turned out to be 196.
Take `O=C(CCC1CCCC1)NCc1cccs1`: in experiment [1], the “area under cytotoxicity dose-response curve” value was 42.7. In experiment [2], the “area under intracellular growth-inhibition dose-response curve” value turned out to be 198.
The like results for `C=C1C(=O)O[C@@H]2C[C@@H](C)[C@@H]3C=CC(=O)[C@@]3(C)[C@@H](OC(C)=O)[C@H]12` were, in that order, 118 and 46.3.
The like results for `COc1cccc(/C=N/NC(N)=S)c1OS(=O)(=O)c1ccccc1` were, in that order, 94.4 and 237.
Take `O=C(CSc1nc(-c2ccccc2)ns1)N1CCOCC1`: the “area under cytotoxicity dose-response curve” value in experiment [1] came out at 56.3. For the same compound, in experiment [2], the “area under intracellular growth-inhibition dose-response curve” value stood at 163.
In the case of `O=C(NNC(=O)c1cc2ccccc2o1)c1ccncc1`, the “area under cytotoxicity dose-response curve” value in experiment [1] was 11.1. In experiment [2], the “area under intracellular growth-inhibition dose-response curve” value worked out at 135.
For `O=C(CCCOc1ccccc1)NNC(=O)c1ccncc1`, the “area under cytotoxicity dose-response curve” value in experiment [1] was less than 0. Also, the “area under intracellular growth-inhibition dose-response curve” value in experiment [2] was determined as 263.
Consider `CC1CC(C)CN(C(=O)C2CCC(CNc3c(N4CCCCC4)c(=O)c3=O)CC2)C1` (stereo unspecified), for which the “area under cytotoxicity dose-response curve” value in experiment [1] came to 0.615. The “area under intracellular growth-inhibition dose-response curve” value in experiment [2] stood at 125.
`C/C(Cn1cnc([N+](=O)[O-])n1)=N/NC(=O)COc1c(Cl)cc(Cl)cc1Cl`: the “area under cytotoxicity dose-response curve” value in experiment [1] is less than 0. The “area under intracellular growth-inhibition dose-response curve” value in experiment [2] amounted to 196.
`Cc1ccc(-c2cc(-c3ccc(C)cc3)[n+](-c3ccccc3)c(-c3ccc(C)cc3)c2)cc1.[O-][Cl+3]([O-])([O-])[O-]`: the “area under cytotoxicity dose-response curve” value in experiment [1] worked out at 85.5. Further, the “area under intracellular growth-inhibition dose-response curve” value in experiment [2] came out at 268.
For `CCCCCc1ccc(OCCC[n+]2ccccc2)c(CCCCC)c1.[Cl-]`, the “area under cytotoxicity dose-response curve” value in experiment [1] turned out to be 53. The “area under intracellular growth-inhibition dose-response curve” value in experiment [2] stood at 137.
As to `CC1CCCC(/C=N/c2ccc(C(=O)O)c(O)c2)=C1O` (stereo unspecified), the “area under cytotoxicity dose-response curve” value in experiment [1] is less than 0. The “area under intracellular growth-inhibition dose-response curve” value in experiment [2] came out at 135.
Turning to `O=C(NCC1CC1(Cl)Cl)Nc1ccc(Cl)c(Cl)c1` (stereo unspecified), in experiment [1], the “area under cytotoxicity dose-response curve” value turned out to be 111. Further, in experiment [2], the “area under intracellular growth-inhibition dose-response curve” value turned out to be 239.
With `CSc1ccc(NC(N)=S)cc1`, the “area under cytotoxicity dose-response curve” value in experiment [1] amounted to 35.6. Moreover, the “area under intracellular growth-inhibition dose-response curve” value in experiment [2] turned out to be 248.
The like results for `COc1ccc(/C=C/C(=O)c2ccc([N+](=O)[O-])o2)cc1` were, in that order, 71.5 and 162.
As for `O=[N+]([O-])c1ccc(CN2CCN(c3ccccc3)CC2)o1`, the “area under cytotoxicity dose-response curve” value in experiment [1] turned out to be 42.8. The “area under intracellular growth-inhibition dose-response curve” value in experiment [2] was 254.
On to `CC1CCCCC1NC(=O)c1cc2ccccc2o1` (stereo unspecified), for which the “area under cytotoxicity dose-response curve” value in experiment [1] was 32.6. Further, in experiment [2], the “area under intracellular growth-inhibition dose-response curve” value worked out at 258.
As to `O=C(NCc1ccc(Cl)cc1)c1ccc(Br)o1`, the “area under cytotoxicity dose-response curve” value in experiment [1] turned out to be 52.2. Also, in experiment [2], the “area under intracellular growth-inhibition dose-response curve” value came out at 204.
Regarding `Cc1nnc(SCC2=C(C(=O)O)N3C(=O)C(NC(=O)COc4ccccc4)C3SC2)s1` (stereo unspecified), the “area under cytotoxicity dose-response curve” value in experiment [1] was determined as 73.9. The “area under intracellular growth-inhibition dose-response curve” value in experiment [2] is 151.
In the case of `O=C(N/N=C/c1ccccc1Cl)c1ccncc1`, in experiment [1], the “area under cytotoxicity dose-response curve” value stood at 69.2. Moreover, in experiment [2], the “area under intracellular growth-inhibition dose-response curve” value is 234.
On to `O=C(OCC(=O)c1ccc(Cl)cc1Cl)c1ccccn1`, for which, in experiment [1], the “area under cytotoxicity dose-response curve” value came out at 10.1. Moreover, the “area under intracellular growth-inhibition dose-response curve” value in experiment [2] was determined as 205.
With `CCOC(=O)c1cnc(-n2nc(C)cc2C)nc1NCCc1ccccc1`, the “area under cytotoxicity dose-response curve” value in experiment [1] came out at 21.7. The “area under intracellular growth-inhibition dose-response curve” value in experiment [2] came out at 247.
Take `Cc1cccc(C)c1-n1c(C)cc(/C=N/NC(=O)c2ccncc2)c1C`: the “area under cytotoxicity dose-response curve” value in experiment [1] was 32.2. Further, in experiment [2], the “area under intracellular growth-inhibition dose-response curve” value came out at 252.
With `COc1ccc(CNC(=O)c2c(C)nc3ccccn23)cc1`, the “area under cytotoxicity dose-response curve” value in experiment [1] turned out to be 8.66. Further, the “area under intracellular growth-inhibition dose-response curve” value in experiment [2] turned out to be 268.
Turning to `C/C(=N\NC(=O)c1ccncc1)c1cccnc1`, the “area under cytotoxicity dose-response curve” value in experiment [1] worked out at 90.7. Also, the “area under intracellular growth-inhibition dose-response curve” value in experiment [2] is 129.
With `O=C(N/N=C/c1ccccn1)c1ccncc1`, the “area under cytotoxicity dose-response curve” value in experiment [1] is 1.91. Further, the “area under intracellular growth-inhibition dose-response curve” value in experiment [2] came out at 262.
Regarding `NC(=S)N/N=C/c1ccc2c(c1)OCCO2`, the “area under cytotoxicity dose-response curve” value in experiment [1] is less than 0. The “area under intracellular growth-inhibition dose-response curve” value in experiment [2] worked out at 263.
The like results for `CC(=O)N1CCN(c2cc3c(cc2F)c(=O)c(C(=O)O)cn3C2CC2)CC1` were, in that order, 6.41 and 228.
In the case of `Cc1ccc(-c2nnc(NC(=O)c3ccc([N+](=O)[O-])o3)o2)c(C)c1`, in experiment [1], the “area under cytotoxicity dose-response curve” value amounted to 91.5. The “area under intracellular growth-inhibition dose-response curve” value in experiment [2] was found to be 78.2.
Take `C/C(=C\c1ccccc1)C(=O)NCc1ccco1`: in experiment [1], the “area under cytotoxicity dose-response curve” value was 134. Moreover, the “area under intracellular growth-inhibition dose-response curve” value in experiment [2] worked out at 111.
`O=C(N/N=C/c1cccn1-c1ccccc1)c1ccncc1`: the “area under cytotoxicity dose-response curve” value in experiment [1] worked out at 57.4. Moreover, the “area under intracellular growth-inhibition dose-response curve” value in experiment [2] stood at 251.
The like results for `CC1CCC(C(C)C)C(OC(=O)Cn2c(COc3ccccc3)[n+](C)c3ccccc32)C1.[Cl-]` (stereo unspecified) were, in that order, 39.3 and 201.
For the compound `CC[C@@H](C)[C@@H]1CN([C@@H](CN2CCC[C@H]2CN2C(N)=NC[C@H]2C(C)C)C(C)C)C(=N)N1CCCC1CCCC1`, the “area under cytotoxicity dose-response curve” value in experiment [1] came to 32.4. Further, the “area under intracellular growth-inhibition dose-response curve” value in experiment [2] is 191.
Turning to `CCOC(=O)c1c(-c2ccccc2)nc2ccc(C)cn12`, in experiment [1], the “area under cytotoxicity dose-response curve” value was 58.7. Also, the “area under intracellular growth-inhibition dose-response curve” value in experiment [2] was determined as 203.
The like results for `O=C(NN=C1CCCCCCCCCCC1)c1ccncc1` were, in that order, 73.9 and 262.
As for `O=C(N/N=C/c1ccccc1C(=O)O)c1ccncc1`, the “area under cytotoxicity dose-response curve” value in experiment [1] is 37.2. Besides, in experiment [2], the “area under intracellular growth-inhibition dose-response curve” value was found to be 266.
